Values of other authors, collected in patent publication US5523456A, “Inhibitors of farnesyl-protein transferase” (Merck & Co., Inc., priority 1994, dated 1996).

Tested on: Ras farnesylation
Details: Hancock et al.; Casey et al.; Schafer et al.

| Compound | Inhibition of Ras farnesylation in vivo |
| --- | --- |
| CC[C@H](C)C(=O)O[C@H]1CCC=C2C=C[C@H](C)[C@H](CC[C@@H]3C[C@@H](O)CC(=O)O3)[C@H]21 [compactin] | Inhibition of Ras farnesylation in vivo has been demonstrated |
| CC[C@H](C)C(=O)O[C@H]1C[C@@H](C)C=C2C=C[C@H](C)[C@H](CC[C@@H]3C[C@@H](O)CC(=O)O3)[C@H]21 [lovastatin] | Inhibition of Ras farnesylation in vivo has been demonstrated |
